Experiments:
Format in all cases: in vivo
TC-1 tumor = TC-1 tumor regression screening of peptides in C57/B6 mice; design: key: Positive: a positive T-cell response was a T-cell response that resulted in regression of the tumor; conditions: TC-1 tumors in C57/B6 mice, vaccinated day 7, peptide alone or with cationic lipid
Description: (§1) Sequence selection was accomplished herein using both tumor regression studies in C57/B6 mice, and interferon-gamma ELISPOT studies in HLA-A2 humanized transgenic mice. […] In the HLA-A2 mouse model ELISPOT study, at least 20 spots per million splenocytes was regarded to be a positive response.
This example illustrates the evaluation or screening of several HPV16 E7 peptides in the TC-1 mouse tumor regression model for their effective processing and presentation of the key epitopes leading to HPV-specific T-cell induction and subsequent tumor regression.
In the tumor regression screening studies mice were implanted with 100,000 TC-1 cells on day 0. On day 7, once the tumors were well established the mice were vaccinated with the specific peptide sequences, either formulated alone or in combination with cationic lipids such as DOTMA, DOEPC or R-DOTAP to facilitate up-take and presentation. In these studies, the vaccine contained the selected peptide at a concentration of 0.1-3.0 mg/mL and cationic liposomes at a concentration of 0.2-3.0 mg/mL. In the cases where the peptide sequences were lipidated by attaching a palmitoyl chain, the peptides were simply mixed with the cationic liposomes prior to vaccination. In the case of the non-lipidated peptides, the liposomes were made and peptides encapsulated by traditional thin film liposome preparation methods (F Szoka, and D Papahadjopoulos, Comparative Properties and Methods of Preparation of Lipid Vesicles (Liposomes), Annual Review of Biophysics and Bioengineering, Vol. 9:467-508, 1980). Other methods well known to those skilled in the art may also have been used.
A sample tumor regression plot showing results for peptides corresponding to SEQ ID NO: 1 (blank square), SEQ ID NOS: 7, 8, 31 32 and 31 (solid black circle), SEQ ID NO: 7 (blank circle), and SEQ ID NO: 8 (solid black triangle) is shown in FIG. 3.

[1] = system: HPV-specific T-cell response (splenocytes); assay: IFN-g ELISPOT on splenocytes of vaccinated humanized HLA-A2 transgenic mice
Description: as §1
This example highlights the approach to evaluating T-cell responses using ELISPOT studies in humanized HLA-A2 transgenic mice. In these studies, the vaccine contained the selected peptide at a concentration of 0.1-3.0 mg/mL and cationic liposomes when used, at a concentration of 0.2-3.0 mg/mL. Humanized HLA-A2 transgenic mice having components of the human immune system capable of recognizing human antigens were vaccinated on day 0 and day 7 with 100 uL of the vaccine. On day 14 the mice were sacrificed and HPV-specific immune response evaluated by interferon-gamma ELISPOT using standard approaches with the splecocytes from the mice (4-8 per group). The splenocytes were stimulated with the specified CD8+ T-cell epitope peptides or the long multi-epitope peptides specified in Table 2. The number of IFN-g spots per million cells is listed for the specified examples. […] The ability of the humanized transgenic mice to successfully generate a T-cell immune response (>20 spots) when stimulated with each of the long multi-epitope peptides as well as short single epitope peptides confirms that the selected peptides are effectively processed and presented to T-cells. In these studies, un-stimulated splenocytes and splenocytes stimulated with irrelevant peptides were both used together as negative controls in every assay. For the positive control in the assay ConA was used.
The present study was performed to evaluate the effect of chemical modification of select peptides on immunogenicity and their ability to be processed, presented and to prime human CD8+ HPV-specific T-cell responses. Peptides corresponding to SEQ ID NO: 23 and 25 contain cysteines which upon oxidation lead to the formation of dimers and other multimers. Two vaccine formulations were prepared containing peptides corresponding to SEQ ID NO: 23 and 25.
In Formulation A: Both peptides were monomeric with high purity confirmed by HPLC analysis. The vaccine contained 1.5-1.6 mg/mL of each peptide.
In Formulation B: Significant oxidation and multimer formation of both peptides was confirmed by HPLC analysis.
Both formulations were mixed 1:1 with 5.8 mg/mL of R-DOTAP prior to vaccination.
The immunogenicity of the peptides was compared as described in the above examples in 10 HLA-A2 mice per formulation by evaluating the ability to induce CD8+ T-cells. ELISPOT studies were performed as described above.

[2] = system: HPV-specific CD8+ T-cell induction (splenocytes); assay: ELISPOT in normal C57/B6 mice, peptide with other cationic lipids; conditions: stimulated with RAHYNIVTF (SEQ ID NO: 1)
Procedure: To determine if the identified long HPV16 peptides are compatible with other cationic lipids besides DOTAP, the peptide corresponding to SEQ ID NO: 26 was used as the model peptide in combination with two other cationic lipids DOTMA and DOEPC. To evaluate the ability of the peptides to effectively undergo processing and presentation, in the presence of both cationic lipids, an ELISPOT study was conducted using normal C57/B6 mice. ELISPOT studies were performed as described above and utilized to determine effective CD8+ T-cell induction.
In formulation 1, 1.35 mg/mL of DOTMA was mixed 1:1 v/v with 0.5 mg/mL of the peptide corresponding to SEQ ID NO: 26.
In formulation 2, 1.67 mg/mL of DOEPC was missed 1:1 v/v with 0.5 mg/mL of the peptide corresponding to SEQ ID NO: 26.
For each formulation 4 mice were vaccinated on Day 0 and Day 7. On Day 14 the mice were scarified and the splenocytes utilized in the ELISPOT study.

PalmKSS GQAEPDRAHYNIVTF [SEQ ID NO: 26]
Immune Response, Method: tumor regression (TC-1 tumor): Positive tumor regression | Immune Response, Method: ELISPOT ([1]; HLA-A2 humanized transgenic mice, IFN-gamma ELISPOT): Positive, ELISPOT (at least 20 spots per million splenocytes was regarded to be a positive response) | ELISPOT result Av spots/10^6 cells ([1]; splenocytes stimulated with GQAEPDRAHYNIVTF (SEQ ID NO: 5)): 1,544 spots/10^6 cells | ELISPOT result Av spots/10^6 cells ([1]; splenocytes stimulated with RAHYNIVTF (SEQ ID NO: 1)): 1,552 spots/10^6 cells | ELISPOT result Av spots/10^6 cells ([2]; formulated with DOEPC (formulation 2)): 243 spots/10^6 cells | ELISPOT result Av spots/10^6 cells ([2]; formulated with DOTMA (formulation 1)): 988 spots/10^6 cells
